Measurements from ChEMBL document CHEMBL5500369, “Design, synthesis, and biological evaluation of 5-(1H-indol-5-yl)isoxazole-3-carboxylic acids as novel xanthine oxidase inhibitors” (Eur J Med Chem, 2024).

Target: T1, Xanthine dehydrogenase/oxidase (Bos taurus, UniProt P80457)
Experiment: Inhibition of bovine xanthine oxidase using xanthine as substrate by measuring uric acid formation measured 30 secs interval for 5 mins by spectrophotometry analysis
Details: not given; call rule not given here

T1 sequence (P80457 whole entry): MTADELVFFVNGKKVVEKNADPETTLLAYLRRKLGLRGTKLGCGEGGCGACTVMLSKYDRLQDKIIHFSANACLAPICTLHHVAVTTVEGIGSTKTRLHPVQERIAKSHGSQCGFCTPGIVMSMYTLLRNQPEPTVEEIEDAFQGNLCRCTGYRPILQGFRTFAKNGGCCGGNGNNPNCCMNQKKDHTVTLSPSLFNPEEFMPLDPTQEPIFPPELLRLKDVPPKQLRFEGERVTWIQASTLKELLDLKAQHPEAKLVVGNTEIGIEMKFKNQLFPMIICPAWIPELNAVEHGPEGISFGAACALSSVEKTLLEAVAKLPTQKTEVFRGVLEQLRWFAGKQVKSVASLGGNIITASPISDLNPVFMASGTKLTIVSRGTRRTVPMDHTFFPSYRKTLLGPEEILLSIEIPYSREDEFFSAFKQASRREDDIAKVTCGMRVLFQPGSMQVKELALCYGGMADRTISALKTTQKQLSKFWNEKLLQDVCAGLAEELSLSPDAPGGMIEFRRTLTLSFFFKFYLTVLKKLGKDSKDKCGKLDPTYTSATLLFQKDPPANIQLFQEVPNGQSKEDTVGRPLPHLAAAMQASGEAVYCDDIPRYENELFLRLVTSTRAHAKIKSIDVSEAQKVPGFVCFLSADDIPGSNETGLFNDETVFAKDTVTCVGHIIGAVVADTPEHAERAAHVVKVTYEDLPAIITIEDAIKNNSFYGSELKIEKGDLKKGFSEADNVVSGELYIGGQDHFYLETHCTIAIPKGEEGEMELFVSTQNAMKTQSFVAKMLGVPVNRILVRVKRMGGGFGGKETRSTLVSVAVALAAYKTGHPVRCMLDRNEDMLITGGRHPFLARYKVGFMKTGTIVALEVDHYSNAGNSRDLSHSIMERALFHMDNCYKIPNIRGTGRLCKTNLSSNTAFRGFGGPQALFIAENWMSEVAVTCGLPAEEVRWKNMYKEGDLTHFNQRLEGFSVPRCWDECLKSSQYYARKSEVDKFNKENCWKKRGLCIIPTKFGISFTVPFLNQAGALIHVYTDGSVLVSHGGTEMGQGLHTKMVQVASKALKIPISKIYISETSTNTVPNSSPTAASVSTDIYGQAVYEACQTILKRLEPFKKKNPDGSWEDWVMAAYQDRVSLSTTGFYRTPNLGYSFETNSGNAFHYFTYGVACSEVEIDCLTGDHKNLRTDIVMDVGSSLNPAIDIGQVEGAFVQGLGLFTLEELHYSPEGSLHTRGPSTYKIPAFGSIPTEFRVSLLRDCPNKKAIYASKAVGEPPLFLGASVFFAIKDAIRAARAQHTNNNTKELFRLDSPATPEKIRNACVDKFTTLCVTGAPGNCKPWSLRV

Structure (SMILES)	IC50 [nM]
CC(C)=Cn1cc(C#N)c2cc(-c3cc(C(=O)O)no3)ccc21	190
N#Cc1cn(Cc2ccccc2Cl)c2ccc(-c3cc(C(=O)O)no3)cc12	200
N#Cc1c[nH]c2ccc(-c3cc(C(=O)O)no3)cc12	3100
CC(C)CCn1cc(C#N)c2cc(-c3cc(C(=O)O)no3)ccc21	380
CCn1cc(C#N)c2cc(-c3cc(C(=O)O)no3)ccc21	560
Cc1ccccc1Cn1cc(C#N)c2cc(-c3cc(C(=O)O)no3)ccc21	260
CC(C)n1cc(C#N)c2cc(-c3cc(C(=O)O)no3)ccc21	130
CC(C)Cn1cc(C#N)c2cc(-c3cc(C(=O)O)no3)ccc21	240
CC#Cn1cc(C#N)c2cc(-c3cc(C(=O)O)no3)ccc21	570
C=CCn1cc(C#N)c2cc(-c3cc(C(=O)O)no3)ccc21	390
N#Cc1cn(Cc2ccc(F)cc2)c2ccc(-c3cc(C(=O)O)no3)cc12	600
N#Cc1cn(Cc2ccc(Cl)cc2)c2ccc(-c3cc(C(=O)O)no3)cc12	1260
CCCCCn1cc(C#N)c2cc(-c3cc(C(=O)O)no3)ccc21	600
CCCn1cc(C#N)c2cc(-c3cc(C(=O)O)no3)ccc21	320
CCCCn1cc(C#N)c2cc(-c3cc(C(=O)O)no3)ccc21	540
N#Cc1cn(Cc2ccccc2F)c2ccc(-c3cc(C(=O)O)no3)cc12	310
N#Cc1cn(CC2CCCC2)c2ccc(-c3cc(C(=O)O)no3)cc12	270
N#Cc1cn(Cc2ccc(Br)cc2)c2ccc(-c3cc(C(=O)O)no3)cc12	1170
N#Cc1cn(Cc2cccc(F)c2)c2ccc(-c3cc(C(=O)O)no3)cc12	1290
N#Cc1cn(Cc2cccc(Cl)c2)c2ccc(-c3cc(C(=O)O)no3)cc12	1840
N#Cc1cn(Cc2ccccc2)c2ccc(-c3cc(C(=O)O)no3)cc12	1030
N#Cc1cn(C2CCC2)c2ccc(-c3cc(C(=O)O)no3)cc12	250
N#Cc1cn(C2CCCC2)c2ccc(-c3cc(C(=O)O)no3)cc12	140

Target: T1, Xanthine dehydrogenase/oxidase
Experiment: Inhibition of bovine xanthine oxidase using xanthine as substrate at 10.0 uM measured 30 secs interval for 5 mins by spectrophotometry relative to control
Details: cattle

Structure (SMILES)	inhibition at 10 µM [%]
CC(C)=Cn1ccc2cc(-c3cc(C(=O)O)no3)ccc21	< 50
CCOC(=O)c1cc(-c2ccc3c(c2)c(C#N)cn3C(C)C)on1	< 50

Target: T1, Xanthine dehydrogenase/oxidase
Experiment: Potency index, ratio of Allopurinol IC50 to test compound IC50 for inhibition of bovine xanthine oxidase using xanthine as substrate by measuring uric acid formation measured 30 secs interval for 5 mins by spectrophotometry analysis
Details: cattle

Structure (SMILES)	Ratio IC50
CC(C)n1cc(C#N)c2cc(-c3cc(C(=O)O)no3)ccc21	22

Target: T1, Xanthine dehydrogenase/oxidase
Experiment: Binding affinity to bovine xanthine oxidase assessed as inhibition constant
Details: not given

Structure (SMILES)	Ki [nM]
CC(C)n1cc(C#N)c2cc(-c3cc(C(=O)O)no3)ccc21	40

Target: not listed separately
Experiment: Binding affinity to bovine xanthine oxidase/xanthine substrate complex assessed as inhibition constant
Set-up: species or system Bos taurus
Details: not given

Structure (SMILES)	Ki [nM]
CC(C)n1cc(C#N)c2cc(-c3cc(C(=O)O)no3)ccc21	360

Target: T1, Xanthine dehydrogenase/oxidase
Experiment: Mixed type inhibition of bovine xanthine oxidase assessed as increase in Km with decrease in Vmax using xanthine as substrate at upto 0.30 uM by Lineweaver-Burk plot analysis
Details: cattle, 0.3 µM

Structure (SMILES)	inhibition (INH)
CC(C)n1cc(C#N)c2cc(-c3cc(C(=O)O)no3)ccc21	Active
